# Data as given in paper PMC2810227, “3-O-Methylfunicone, a Selective Inhibitor of Mammalian Y-Family DNA Polymerases from an Australian Sea Salt Fungal Strain” (Marine Drugs, 2009).
# What was measured:
# UV-treated HeLa cells = test: UV-treated clonogenic assay; assay type: cell-based, human; conditions: 10 J/m^2 UV
# Experimental: (§1) Figure 5. (A) Human cancer cell growth inhibition dose-response curves of 3-O-methyl-funicone (1). Various concentrations (0 to 150 μM) of compound 1 were incubated with human colon carcinoma (HCT116) cells (circle) and human cervix carcinoma (HeLa) cells (square) for 24 h. Rate of cell growth was determined by MTT assay as described in the Experimental section. Data are shown as the means ± SEM of five independent experiments. (B) Clonogenic survival of UV-treated HeLa cells by compound 1. Various concentrations (0 to 100 μM) of compound 1 were incubated with 10 J/m^2 UV-treated (closed circle) or untreated (open circle) HeLa cells. After 7 days, the number of colonies in each treatment group was counted. Values are the means ± SEM of two independent experiments.
# For clonogenic assay, 600 cells of HeLa were seeded on 10-cm plates and allowed to grow for 24 h before 10 J/m^2 UV irradiation treatment. The cells were then treated with various concentrations of compound 1 for 24 h. The cells were then washed with PBS and fresh medium was added for an additional 7-day incubation in a humidified 10% CO2 incubator at 37 °C. […] The number of colonies in each treatment group was counted, and the cell survival data were presented as percentage of the colony numbers of treated/untreated cells.
# [1] = test system: HCT116 (colon carcinoma cells); test: Cancer cell growth, MTT assay, HCT116; assay type: cell-based, human
# Experimental: as §1
# Human colon carcinoma cell line, HCT116, was a kind gift from Dr. Bert Vogelstein (Johns Hopkins University, Baltimore, […], USA). Human cervix carcinoma cell line, HeLa, was obtained from Health Science Research Resources Bank (Osaka, Japan). The cells were maintained in McCoy’s 5A medium supplemented with 10% FBS, sodium bicarbonate (2 g/L) and streptomycin (100 μg/mL). The cells were cultured at 37 °C in standard medium in a humidified atmosphere of 5% CO2-95% air. […] After incubation for 24 h, the survival rate was determined by MTT (3-(4,5-dimethylthiazol-2-yl)-2,5-diphenyl tetrazolium bromide) assay.
# human pol ɛ = target: T1, human pol ɛ (Homo sapiens, UniProt Q07864); test: DNA polymerase assay, pol ɛ; assay type: biochemical; conditions: 100 μM
# T1 construct: purified by nuclear fractionation of human peripheral blood cancer cells (Molt-4); endogenous in cells; host or cells: Molt-4
# T1 sequence (Q07864 whole entry): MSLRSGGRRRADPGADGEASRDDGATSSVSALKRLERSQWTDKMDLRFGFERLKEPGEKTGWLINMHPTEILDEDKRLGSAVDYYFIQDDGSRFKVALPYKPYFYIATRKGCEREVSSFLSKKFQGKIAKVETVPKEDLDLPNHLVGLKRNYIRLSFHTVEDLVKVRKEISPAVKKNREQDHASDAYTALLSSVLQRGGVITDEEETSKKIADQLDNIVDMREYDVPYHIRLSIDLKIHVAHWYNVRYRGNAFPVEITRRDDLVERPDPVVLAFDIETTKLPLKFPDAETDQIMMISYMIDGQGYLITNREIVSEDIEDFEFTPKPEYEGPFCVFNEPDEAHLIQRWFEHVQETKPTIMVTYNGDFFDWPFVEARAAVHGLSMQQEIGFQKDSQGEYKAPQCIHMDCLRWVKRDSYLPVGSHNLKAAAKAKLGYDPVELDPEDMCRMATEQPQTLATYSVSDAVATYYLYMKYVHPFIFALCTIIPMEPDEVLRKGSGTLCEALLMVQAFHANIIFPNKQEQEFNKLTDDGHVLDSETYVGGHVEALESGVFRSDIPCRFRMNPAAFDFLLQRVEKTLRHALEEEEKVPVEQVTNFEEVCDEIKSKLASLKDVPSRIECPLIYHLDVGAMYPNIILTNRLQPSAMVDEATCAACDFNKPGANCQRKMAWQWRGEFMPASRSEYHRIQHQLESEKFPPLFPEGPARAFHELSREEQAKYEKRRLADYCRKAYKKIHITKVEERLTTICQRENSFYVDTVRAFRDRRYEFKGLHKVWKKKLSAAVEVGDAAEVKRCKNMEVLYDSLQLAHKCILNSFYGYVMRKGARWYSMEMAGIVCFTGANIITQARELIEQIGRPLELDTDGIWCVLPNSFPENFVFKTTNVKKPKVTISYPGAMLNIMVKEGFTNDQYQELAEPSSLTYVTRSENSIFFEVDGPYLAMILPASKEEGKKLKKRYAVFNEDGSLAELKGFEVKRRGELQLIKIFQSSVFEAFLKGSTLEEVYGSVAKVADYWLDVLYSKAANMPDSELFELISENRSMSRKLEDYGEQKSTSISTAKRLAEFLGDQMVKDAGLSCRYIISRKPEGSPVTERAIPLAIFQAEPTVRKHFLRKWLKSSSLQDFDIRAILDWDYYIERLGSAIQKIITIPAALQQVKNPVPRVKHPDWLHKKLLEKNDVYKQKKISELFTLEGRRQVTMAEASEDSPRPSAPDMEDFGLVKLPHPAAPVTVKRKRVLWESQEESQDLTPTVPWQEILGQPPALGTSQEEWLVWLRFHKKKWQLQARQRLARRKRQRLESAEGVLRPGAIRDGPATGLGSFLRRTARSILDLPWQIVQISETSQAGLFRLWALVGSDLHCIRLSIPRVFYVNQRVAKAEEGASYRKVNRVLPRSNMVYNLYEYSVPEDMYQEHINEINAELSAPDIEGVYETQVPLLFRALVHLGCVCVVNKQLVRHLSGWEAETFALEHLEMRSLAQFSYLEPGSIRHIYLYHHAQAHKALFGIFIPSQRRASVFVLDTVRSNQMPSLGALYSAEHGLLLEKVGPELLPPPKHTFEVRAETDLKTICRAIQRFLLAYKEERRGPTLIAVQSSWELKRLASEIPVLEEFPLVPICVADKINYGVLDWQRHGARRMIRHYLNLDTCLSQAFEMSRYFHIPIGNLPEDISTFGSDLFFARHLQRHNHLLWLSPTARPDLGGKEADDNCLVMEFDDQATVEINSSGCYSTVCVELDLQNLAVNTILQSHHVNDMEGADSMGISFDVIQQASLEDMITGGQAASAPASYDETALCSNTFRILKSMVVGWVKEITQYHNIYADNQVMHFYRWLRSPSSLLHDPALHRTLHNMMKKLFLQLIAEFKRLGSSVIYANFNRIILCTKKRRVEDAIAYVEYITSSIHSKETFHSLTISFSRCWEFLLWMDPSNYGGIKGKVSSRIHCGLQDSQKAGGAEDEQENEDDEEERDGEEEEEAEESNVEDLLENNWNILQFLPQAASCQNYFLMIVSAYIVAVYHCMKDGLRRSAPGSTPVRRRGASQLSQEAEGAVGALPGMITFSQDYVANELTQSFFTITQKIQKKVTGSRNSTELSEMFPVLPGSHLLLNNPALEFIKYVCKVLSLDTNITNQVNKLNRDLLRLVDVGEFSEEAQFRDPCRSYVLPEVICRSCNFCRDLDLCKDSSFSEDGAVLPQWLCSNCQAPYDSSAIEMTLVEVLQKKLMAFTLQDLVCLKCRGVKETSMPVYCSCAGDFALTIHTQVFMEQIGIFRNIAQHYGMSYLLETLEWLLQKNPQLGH
# From the text: Pol α was purified from calf thymus by immuno-affinity column chromatography, as described by Tamai et al.. Recombinant rat pol β was purified from E. coli JMpβ5, as described by Date et al.. The human pol γ catalytic gene was cloned into pFastBac. Histidine-tagged enzyme was expressed using the BAC-TO-BAC HT Baculovirus Expression System according to the supplier’s manual (Life Technologies, MD, USA) and purified using ProBoundresin (Invitrogen Japan, Tokyo, Japan). Human pols δ and ɛ were purified by nuclear fractionation of human peripheral blood cancer cells (Molt-4) using the second subunit of pols δ and ɛ-conjugated affinity column chromatography, respectively. A truncated form of human pol η (residues 1–511) tagged with His6 at its C-terminal was expressed in E. coli cells and purified as described by Kusumoto et al.. A recombinant mouse pol ι tagged with His6 at its C-terminal was expressed and purified by Ni-NTA column chromatography as described elsewhere (Masutani et al., in preparation). […]
# The compounds were dissolved in distilled dimethyl sulfoxide (DMSO) at various concentrations and sonicated for 30 sec. […] Activity without the inhibitor was considered 100%, and the remaining activity at each concentration of the inhibitor was determined relative to this value. […]
# calf primase of pol α = test: Primase assay; assay type: biochemical; conditions: 100 μM
# Experimental: The activities of calf primase of pol α, human telomerase, T7 RNA polymerase, mouse IMP dehydrogenase, human DNA topoisomerases I and II, T4 polynucleotide kinase and bovine DNase I were measured in standard assays according to the manufacturer’s specifications, as described by Tamiya-Koizumi et al., Oda et al., Nakayama et al., Mizushina et al., Ishimaru et al., Soltis et al. and Lu et al., respectively.
structure (smiles),measurement,setting,value
"C/C=C/c1occ(C(=O)c2c(OC)cc(OC)cc2C(=O)OC)c(=O)c1OC [compound 1, 3-O-methylfunicone]",inhibiting clonogenic survival effect on UV exposed cells versus non-exposed cells,"UV-treated HeLa cells; 100 μM, HeLa, 7 days",4.3 fold
same,HeLa cell UV-sensitivity,UV-treated HeLa cells; 0 to 100 μM,significantly enhanced
same,"LD50, cell growth","[1]; HCT116, 24 h, MTT assay",63.8 µM
same,cell growth inhibition dose relative to the enzyme inhibitory concentration,[1]; LD50 (HCT116 and HeLa) versus IC50 for Y-family pols,1.3 to 5.1 fold
same,effect on pol ɛ activity,human pol ɛ,hardly influenced
same,effect on calf primase of pol α activity,calf primase of pol α,did not influence
